This is an account of results in Sander's compilation of Henry's law constants (doi:10.5985/jec.7.81).

The data set in a line: Henry solubility constant Hcp at 298.15 K (mol/(m3 Pa)). The settings on record: reference: Kondoh and Nakajima (1997).
Regarding `ClCC(Cl)(Cl)Cl` [1,1,1,2-tetrachloroethane], the “Henry solubility constant Hcp” value was found to be 0.0043. In the case of `CC(Cl)(Cl)Cl` [1,1,1-trichloroethane] it was 0.00067; in that of `ClCC(Cl)Cl` [1,1,2-trichloroethane], 0.011. `C=C(Cl)Cl` [1,1-dichloroethene]: the “Henry solubility constant Hcp” value was 0.00046. Consider `CC=C(Cl)Cl` [1,1-dichloropropene], for which the “Henry solubility constant Hcp” value was determined as 0.00054. In the case of `Clc1cccc(Cl)c1Cl` [1,2,3-trichlorobenzene] it was 0.015; in that of `ClCC(Cl)CCl` [1,2,3-trichloropropane], 0.028. For `Cc1ccc(C)c(C)c1` [1,2,4-trimethylbenzene] the value was 0.0023; for `ClCC(Br)CBr` (centres undefined) [1,2-dibromo-3-chloropropane], 0.5. In the case of `CC(Cl)CCl` (centres undefined) [1,2-dichloropropane] it was 0.0043.

In the case of `Cc1ccccc1C` [1,2-dimethylbenzene], the “Henry solubility constant Hcp” value is 0.0019. In the case of `Cc1cc(C)cc(C)c1` [1,3,5-trimethylbenzene] it was 0.0015.

On to `Clc1cccc(Cl)c1` [1,3-dichlorobenzene], for which the “Henry solubility constant Hcp” value was 0.0038.

As to `ClCCCCl` [1,3-dichloropropane], the “Henry solubility constant Hcp” value was 0.011. Turning to `Cc1cccc(C)c1` [1,3-dimethylbenzene], the “Henry solubility constant Hcp” value turned out to be 0.0015. As for `Clc1ccc(Cl)cc1` [1,4-dichlorobenzene], the “Henry solubility constant Hcp” value is 0.0047. With `Cc1ccc(C)cc1` [1,4-dimethylbenzene], the “Henry solubility constant Hcp” value came out at 0.0015. For `Cc1ccc(Cl)cc1` [1-chloro-4-methylbenzene] the value was 0.0029. Take `Cc1ccc(C(C)C)cc1` [1-methyl-4-(1-methylethyl)-benzene]: the “Henry solubility constant Hcp” value was 0.001.

As for `CC(C)(Cl)Cl` [2,2-dichloropropane], the “Henry solubility constant Hcp” value is 0.00071. For `CC(C)(C)c1ccccc1` [(1,1-dimethylethyl)-benzene] the value was 0.00094; for `CCC(C)c1ccccc1` (centres undefined) [(1-methylpropyl)-benzene], 0.00075; for `CC(C)c1ccccc1` [(2-propyl)-benzene], 0.001. For `c1ccccc1` [benzene] the value was 0.0018.

For the molecule `Brc1ccccc1` [bromobenzene], the “Henry solubility constant Hcp” value came to 0.0049. For `ClCBr` [bromochloromethane] the value was 0.0078; for `ClC(Cl)Br` [bromodichloromethane], 0.0054; for `CCCCc1ccccc1` [butylbenzene], 0.00091.

As for `Clc1ccccc1` [chlorobenzene], the “Henry solubility constant Hcp” value is 0.003. As to `Cl/C=C\CCl` [cis-1,3-dichloropropene], the “Henry solubility constant Hcp” value worked out at 0.0063. As for `ClC(Br)Br` [dibromochloromethane], the “Henry solubility constant Hcp” value is 0.0098.

On to `BrCBr` [dibromomethane], for which the “Henry solubility constant Hcp” value was 0.012. For `ClCCl` [dichloromethane] the value was 0.0037. In the case of `C=Cc1ccccc1` [ethenylbenzene] it was 0.0038; in that of `CCc1ccccc1` [ethylbenzene], 0.0014. As for `ClC(Cl)=C(Cl)C(Cl)=C(Cl)Cl` [hexachlorobutadiene], the “Henry solubility constant Hcp” value amounted to 0.0007. `Cc1ccccc1` [methylbenzene]: the “Henry solubility constant Hcp” value was 0.0017.

In the case of `c1ccc2ccccc2c1` [naphthalene], the “Henry solubility constant Hcp” value was found to be 0.017. For the molecule `CCCc1ccccc1` [propylbenzene], the “Henry solubility constant Hcp” value was found to be 0.0011. As to `ClC(Cl)=C(Cl)Cl` [tetrachloroethene], the “Henry solubility constant Hcp” value was found to be 0.00069. For `ClC(Cl)(Cl)Cl` [tetrachloromethane] the value was 0.00044. On to `Cl/C=C/CCl` [trans-1,3-dichloropropene], for which the “Henry solubility constant Hcp” value was 0.01.

Take `BrC(Br)Br` [tribromomethane]: the “Henry solubility constant Hcp” value worked out at 0.014. In the case of `ClC=C(Cl)Cl` [trichloroethene], the “Henry solubility constant Hcp” value turned out to be 0.0011.
